Experimental findings from article PMC6514012, “Targeting the neuronal calcium sensor DREAM with small-molecules for Huntington’s disease treatment” (Scientific Reports, 2019) are described below.

For data set [1], the target named is T1, GST-DREAM (Homo sapiens, UniProt Q9Y2W7, Y130A).
T1 construct: gene KCNIP3
T1 sequence (Q9Y2W7 1-256 Y130A): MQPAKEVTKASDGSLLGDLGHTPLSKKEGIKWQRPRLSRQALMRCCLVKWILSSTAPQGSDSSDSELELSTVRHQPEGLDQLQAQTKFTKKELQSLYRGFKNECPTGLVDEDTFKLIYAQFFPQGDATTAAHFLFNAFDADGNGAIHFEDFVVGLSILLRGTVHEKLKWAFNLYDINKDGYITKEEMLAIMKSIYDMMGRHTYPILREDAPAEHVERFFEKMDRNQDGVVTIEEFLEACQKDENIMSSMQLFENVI
Nature of the data set: SPR, immobilized protein. It counts as binding. Conditions: CM5 chip; compared with wild type. On the technique in general: In SPR one partner is held on a chip, and binding of the other changes the refractive index at the surface.

For data set [2], the target named is T2, GST-DREAM (Homo sapiens, UniProt Q9Y2W7, Y118A).
T2 construct: gene KCNIP3
T2 sequence (Q9Y2W7 1-256 Y118A): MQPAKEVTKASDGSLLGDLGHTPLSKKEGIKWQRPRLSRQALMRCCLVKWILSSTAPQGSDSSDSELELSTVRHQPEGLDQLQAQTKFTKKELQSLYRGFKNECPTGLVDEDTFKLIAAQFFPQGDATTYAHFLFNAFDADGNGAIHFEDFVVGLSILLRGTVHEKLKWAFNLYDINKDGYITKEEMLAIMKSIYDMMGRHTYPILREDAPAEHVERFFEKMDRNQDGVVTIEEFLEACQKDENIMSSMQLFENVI
Description: SPR, immobilized protein. It counts as binding. Conditions: CM5 chip; compared with wild type.

In data set [3] the target is T3, His-DREAM (71–256); rDREAM (Homo sapiens, UniProt Q9Y2W7).
T3 construct: gene KCNIP3; residues 71-256, His-tagged, recombinant, immobilized on CM4 sensor chip; dimer and monomer in Ca2+
T3 sequence (Q9Y2W7 71-256): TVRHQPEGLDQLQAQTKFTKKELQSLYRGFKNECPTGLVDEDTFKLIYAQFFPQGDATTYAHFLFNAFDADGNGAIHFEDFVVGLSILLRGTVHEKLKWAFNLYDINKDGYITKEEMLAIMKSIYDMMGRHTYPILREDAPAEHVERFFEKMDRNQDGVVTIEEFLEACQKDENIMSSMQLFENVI
Nature of the data set: SPR, immobilized protein. Conditions: CM4 chip; binding depends on Ca2+ and Mg2+.

Data set [4] concerns the molecule itself. Description: native gel or EMSA; 10% blue native (nondenaturing, nonreducing) polyacrylamide gel; His-DREAM 71-256 (50 ng, 100 nM) with 5 mM CaCl2, incubated 10 min at RT with 10, 30, 100 and 300 nM IQM-PC330; immunodetection with anti-DREAM antibody; dimer and monomer bands. (In EMSA bound probe runs differently from free probe, usually more slowly.)

A word on the stoichiometry N: it is the number of molecules, sites or subunits per partner or assembly.

In the case of `CCCCc1ccc(-c2ccc(C(=O)O)c(NC(=O)Cc3ccc(Cl)c(Cl)c3)c2)cc1` [compound 19, 2-[2-(3,4-Dichlorophenyl)acetylamino]-4-(4′-n-butylphenyl)benzoic acid], the “SPR, immobilized protein” value on GST-DREAM [1] and at GST-DREAM [2] was “Tyr118Ala or Tyr130Ala showed a substantial decrease in the binding of the two ligands” in each case. In addition, the KD in data set [3] is recorded as 2.8 ± 0.3 · 10^−5 M.
As to `CCCCc1ccc(-c2ccc(NC(=O)Cc3ccc(Cl)c(Cl)c3)c(C(=O)O)c2)cc1` [compound 36, 2-[2-(3,4-Dichlorophenyl)acetylamino]-5-(4’-n-butylphenyl)benzoic acid], the “SPR, immobilized protein” value at GST-DREAM [1] and at GST-DREAM [2] was “Tyr118Ala or Tyr130Ala showed a substantial decrease in the binding of the two ligands” each time. Moreover, the KD in data set [3] is listed as 3.9 ± 0.4 · 10^−5 M.

B1: Recombinant His-tagged soluble DREAM protein (aa 71–256) (domain or fragment, UniProt Q9Y2W7 71-256, looked up)
chain: TVRHQPEGLDQLQAQTKFTKKELQSLYRGFKNECPTGLVDEDTFKLIYAQFFPQGDATTYAHFLFNAFDADGNGAIHFEDFVVGLSILLRGTVHEKLKWAFNLYDINKDGYITKEEMLAIMKSIYDMMGRHTYPILREDAPAEHVERFFEKMDRNQDGVVTIEEFLEACQKDENIMSSMQLFENVI
notes: DREAM (downstream regulatory element antagonist modulator; KChIP3, calsenilin), residues 71-256; Seen as dimer and monomer on blue native gels with 5 mM CaCl2; also called rDREAM; recombinant DREAM (amino acids 71–256); source: recombinant protein
For B1, the “stoichiometry N” value in data set [4] was 2.
